Test results taken from patent publication US20070128217A1 (priority 2003, published 2007).

Assays:
[1] = tested on: antibodies in sera from SARS patients (sera 1a, 1b, 2, 6, 37, 62, London, SARS-yellow, SARS-green); type: binding, human; design: Binding of serum 6 to linear peptides of protein X1 of SARS-CoV Urbani / Binding of serum 37 to linear peptides of protein X1 of SARS-CoV Urbani / Binding of serum 6 to looped/cyclic peptide (PEPSCAN-ELISA) / Binding of serum 37 to looped/cyclic peptide (PEPSCAN-ELISA) / Binding of serum 37 to looped/cyclic peptides of protein X1 of SARS-CoV Urbani / Binding of serum 6 to linear peptides of protein X2 / Binding of serum 37 to linear peptides of protein X2 / Binding of serum 37 to looped/cyclic peptides of protein X2 of SARS-CoV Urbani / Binding of serum 6 to linear peptides of protein M of SARS-CoV Urbani / Binding of serum 37 to linear peptides of protein M of SARS-CoV Urbani / Binding of serum 6 to looped/cyclic peptides of protein M of SARS-CoV Urbani / Binding of serum 37 to looped/cyclic peptides of protein M of SARS-CoV Urbani / Binding of serum 6 to linear peptides of protein X3 of SARS-CoV Urbani / Binding of serum 37 to linear peptides of protein X3 of SARS-CoV Urbani / Binding of serum 37 to looped/cyclic peptides of protein X3 of SARS-CoV Urbani / Binding of serum 6 to linear peptides of protein X4 of SARS-CoV Urbani / Binding of serum 37 to linear peptides of protein X4 of SARS-CoV Urbani / Binding of serum 37 to looped/cyclic peptides of protein X4 of SARS-CoV Urbani / Binding of serum 6 to linear peptides of protein X5 of SARS-CoV Urbani / Binding of serum 37 to linear peptides of protein X5 of SARS-CoV Urbani / Binding of serum 37 to looped/cyclic peptides of protein X5 of SARS-CoV Urbani / Binding of serum 6 to linear peptides of protein N of SARS-CoV Urbani / Binding of serum 37 to linear peptides of protein N of SARS-CoV Urbani / Binding of serum 6 to linear peptide (PEPSCAN-ELISA) / Binding of serum 1a to looped/cyclic peptides of protein N of SARS-CoV Urbani / Binding of serum 1b to looped/cyclic peptides of protein N of SARS-CoV Urbani / Binding of serum 2 to looped/cyclic peptides of protein N of SARS-CoV Urbani / Binding of serum 6 to looped/cyclic peptides of protein N of SARS-CoV Urbani / Binding of serum 37 to looped/cyclic peptides of protein N of SARS-CoV Urbani / Binding of serum 62 to looped/cyclic peptides of protein N of SARS-CoV Urbani / Binding of serum London to looped/cyclic peptides of protein N of SARS-CoV Urbani / Binding of serum SARS-green to looped/cyclic peptides of protein N of SARS-CoV Urbani: unit not given here
[2] = tested on: rabbit serum obtained by immunizing a rabbit with the SARS-CoV strain Frankfurt 1; type: binding; design: Binding of a rabbit serum to linear peptides / Binding of a rabbit serum to looped peptides / Rabbit serum linear peptides / Rabbit serum looped peptides / Binding of a rabbit serum to linear peptides of protein N of SARS-CoV Urbani (Rabbit serum linear peptides) / Binding of a rabbit serum to looped/cyclic peptides of protein N of SARS-CoV Urbani (Rabbit serum looped peptides): unit not given here
[3] = tested on: control sera (pooled serum of ten healthy LUMC hospital workers; commercial negative donor pooled serum from the Dutch bloodbank); type: binding, human; design: Binding of Control serum LUMC to linear peptides / Binding of Control serum Blood-bank to linear peptides / Binding of Control serum LUMC to looped peptides / Binding of Control Serum Blood-Bank to Looped peptides / Binding of Control serum LUMC to linear peptides of the protein M of SARS-CoV Urbani / Binding of Control serum Blood-bank to linear peptides of the protein M of SARS-CoV Urbani / Binding of Control serum LUMC to looped peptides of the protein M of SARS-CoV Urbani / Binding of Control Serum Blood-Bank to Looped peptides of the protein M of SARS-CoV Urbani: unit not given here

LTCTSTHFAFACADG
Binding of serum 1a to linear peptides of protein X4 of SARS-CoV Urbani [1]: 0.8
Binding of serum 1a to looped/cyclic peptides of protein X4 of SARS-CoV Urbani [1]: 0.6
Binding of serum 1b to linear peptides of protein X4 of SARS-CoV Urbani [1]: 0.8
Binding of serum 1b to looped/cyclic peptides of protein X4 of SARS-CoV Urbani [1]: 0.3
Binding of serum 2 to linear peptides of protein X4 of SARS-CoV Urbani [1]: 0.5
Binding of serum 2 to looped/cyclic peptides of protein X4 of SARS-CoV Urbani [1]: 0.6
Binding of serum 6 to linear peptides of protein X4 of SARS-CoV Urbani [1]: 0.6
Binding of serum 6 to looped/cyclic peptides of protein X4 of SARS-CoV Urbani [1]: 0.5
Binding of serum 37 to linear peptides of protein X4 of SARS-CoV Urbani [1]: 0.8
Binding of serum 37 to looped/cyclic peptides of protein X4 of SARS-CoV Urbani [1]: 0.5
Binding of serum 62 to linear peptides of protein X4 of SARS-CoV Urbani [1]: 0.8
Binding of serum 62 to looped/cyclic peptides of protein X4 of SARS-CoV Urbani [1]: 0.6
Binding of serum London to linear peptides of protein X4 of SARS-CoV Urbani [1]: 0.8
Binding of serum London to looped/cyclic peptides of protein X4 of SARS-CoV Urbani [1]: 0.3
Binding of serum SARS-green to linear peptides of protein X4 of SARS-CoV Urbani [1]: 0.8
Binding of serum SARS-green to looped/cyclic peptides of protein X4 of SARS-CoV Urbani [1]: 0.4
Binding of serum SARS-yellow to linear peptides of protein X4 of SARS-CoV Urbani [1]: 0.5
Binding of serum SARS-yellow to looped/cyclic peptides of protein X4 of SARS-CoV Urbani [1]: 0.4
Rabbit serum linear peptides [2]: 0.5
Rabbit serum looped peptides [2]: 0.3
Binding of Control Serum Blood-Bank to Looped peptides [3]: 0.7
Binding of Control serum Blood-bank to linear peptides [3]: 0.8
Binding of Control serum LUMC to linear peptides [3]: 0.8
Binding of Control serum LUMC to looped peptides [3]: 0.6

AISPKFTTSLSLHKL
Binding of serum 1a to linear peptides of protein X2 [1]: 0.6
Binding of serum 1a to looped/cyclic peptides of protein X2 of SARS-CoV Urbani [1]: 0.6
Binding of serum 1b to linear peptides of protein X2 [1]: 0.5
Binding of serum 1b to looped/cyclic peptides of protein X2 of SARS-CoV Urbani [1]: 0.6
Binding of serum 2 to linear peptides of protein X2 [1]: 0.5
Binding of serum 2 to looped/cyclic peptides of protein X2 of SARS-CoV Urbani [1]: 0.4
Binding of serum 6 to linear peptides of protein X2 [1]: 0.6
Binding of serum 6 to looped/cyclic peptides of protein X2 of SARS-CoV Urbani [1]: 0.8
Binding of serum 37 to linear peptides of protein X2 [1]: 0.6
Binding of serum 37 to looped/cyclic peptides of protein X2 of SARS-CoV Urbani [1]: 0.5
Binding of serum 62 to linear peptides of protein X2 [1]: 0.6
Binding of serum 62 to looped/cyclic peptides of protein X2 of SARS-CoV Urbani [1]: 0.7
Binding of serum London to linear peptides of protein X2 [1]: 0.5
Binding of serum London to looped/cyclic peptides of protein X2 of SARS-CoV Urbani [1]: 1.1
Binding of serum SARS-green to linear peptides of protein X2 [1]: 0.4
Binding of serum SARS-green to looped/cyclic peptides of protein X2 of SARS-CoV Urbani [1]: 0.3
Binding of serum SARS-yellow to linear peptides of protein X2 [1]: 0.5
Binding of serum SARS-yellow to looped/cyclic peptides of protein X2 of SARS-CoV Urbani [1]: 0.4
Binding of a rabbit serum to linear peptides [2]: 0.2
Binding of a rabbit serum to looped peptides [2]: 0.4
Binding of Control Serum Blood-Bank to Looped peptides [3]: 0.8
Binding of Control serum Blood-bank to linear peptides [3]: 0.8
Binding of Control serum LUMC to linear peptides [3]: 0.6
Binding of Control serum LUMC to looped peptides [3]: 0.6

VTIAEILIIIMRTFR
Binding of serum 1a to linear peptides of protein X3 of SARS-CoV Urbani [1]: 0.7
Binding of serum 1a to looped/cyclic peptides of protein X3 of SARS-CoV Urbani [1]: 0.7
Binding of serum 1b to linear peptides of protein X3 of SARS-CoV Urbani [1]: 0.3
Binding of serum 1b to looped/cyclic peptides of protein X3 of SARS-CoV Urbani [1]: 0.4
Binding of serum 2 to linear peptides of protein X3 of SARS-CoV Urbani [1]: 0.7
Binding of serum 2 to looped/cyclic peptides of protein X3 of SARS-CoV Urbani [1]: 0.7
Binding of serum 6 to linear peptides of protein X3 of SARS-CoV Urbani [1]: 0.7
Binding of serum 6 to looped/cyclic peptides of protein X3 of SARS-CoV Urbani [1]: 0.7
Binding of serum 37 to linear peptides of protein X3 of SARS-CoV Urbani [1]: 0.4
Binding of serum 37 to looped/cyclic peptides of protein X3 of SARS-CoV Urbani [1]: 0.6
Binding of serum 62 to linear peptides of protein X3 of SARS-CoV Urbani [1]: 0.6
Binding of serum 62 to looped/cyclic peptides of protein X3 of SARS-CoV Urbani [1]: 0.5
Binding of serum London to linear peptides of protein X3 of SARS-CoV Urbani [1]: 0.6
Binding of serum London to looped/cyclic peptides of protein X3 of SARS-CoV Urbani [1]: 0.3
Binding of serum SARS-green to linear peptides of protein X3 of SARS-CoV Urbani [1]: 0.5
Binding of serum SARS-green to looped/cyclic peptides of protein X3 of SARS-CoV Urbani [1]: 0.2
Binding of serum SARS-yellow to linear peptides of protein X3 of SARS-CoV Urbani [1]: 0.3
Binding of serum SARS-yellow to looped/cyclic peptides of protein X3 of SARS-CoV Urbani [1]: 0.6
Rabbit serum linear peptides [2]: 0.2
Rabbit serum looped peptides [2]: 0.4
Binding of Control Serum Blood-Bank to Looped peptides of the protein X3 of SARS-CoV Urbani [3]: 0.8
Binding of Control serum Blood-bank to linear peptides of the protein X3 of SARS-CoV Urbani [3]: 0.8
Binding of Control serum LUMC to linear peptides of the protein X3 of SARS-CoV Urbani [3]: 0.6
Binding of Control serum LUMC to looped peptides of the protein X3 of SARS-CoV Urbani [3]: 0.8

VSTNLCTHSFRKKQV
Binding of serum 1a to looped/cyclic peptides of protein X2 of SARS-CoV Urbani [1]: 0.5
Binding of serum 1b to looped/cyclic peptides of protein X2 of SARS-CoV Urbani [1]: 0.3
Binding of serum 2 to looped/cyclic peptides of protein X2 of SARS-CoV Urbani [1]: 0.6
Binding of serum 6 to looped/cyclic peptides of protein X2 of SARS-CoV Urbani [1]: 0.5
Binding of serum 37 to looped/cyclic peptides of protein X2 of SARS-CoV Urbani [1]: 0.5
Binding of serum 62 to looped/cyclic peptides of protein X2 of SARS-CoV Urbani [1]: 0.6
Binding of serum London to looped/cyclic peptides of protein X2 of SARS-CoV Urbani [1]: 0.1
Binding of serum SARS-green to looped/cyclic peptides of protein X2 of SARS-CoV Urbani [1]: 0.3
Binding of serum SARS-yellow to looped/cyclic peptides of protein X2 of SARS-CoV Urbani [1]: 0.4
Recognition of the peptide by sera of SARS-CoV infected individuals, and form (linear, looped/cyclic) in which it is recognized [1]: recognized in linear form
Binding of a rabbit serum to linear peptides [2]: 0.3
Binding of a rabbit serum to looped peptides [2]: 0.2
Binding of Control Serum Blood-Bank to Looped peptides [3]: 0.5
Binding of Control serum Blood-bank to linear peptides [3]: 0.8
Binding of Control serum LUMC to linear peptides [3]: 0.6
Binding of Control serum LUMC to looped peptides [3]: 0.7

PETNILLNVPLRGTI
Binding of serum 1a to linear peptides of protein M of SARS-CoV Urbani [1]: 0.8
Binding of serum 1a to looped/cyclic peptides of protein M of SARS-CoV Urbani [1]: 0.6
Binding of serum 1b to linear peptides of protein M of SARS-CoV Urbani [1]: 0.6
Binding of serum 1b to looped/cyclic peptides of protein M of SARS-CoV Urbani [1]: 0.6
Binding of serum 2 to linear peptides of protein M of SARS-CoV Urbani [1]: 0.7
Binding of serum 2 to looped/cyclic peptides of protein M of SARS-CoV Urbani [1]: 0.7
Binding of serum 6 to linear peptides of protein M of SARS-CoV Urbani [1]: 0.4
Binding of serum 6 to looped/cyclic peptides of protein M of SARS-CoV Urbani [1]: 0.9
Binding of serum 37 to linear peptides of protein M of SARS-CoV Urbani [1]: 0.9
Binding of serum 37 to looped/cyclic peptides of protein M of SARS-CoV Urbani [1]: 0.8
Binding of serum 62 to linear peptides of protein M of SARS-CoV Urbani [1]: 0.5
Binding of serum 62 to looped/cyclic peptides of protein M of SARS-CoV Urbani [1]: 0.8
Binding of serum London to linear peptides of protein M of SARS-CoV Urbani [1]: 0.4
Binding of serum London to looped/cyclic peptides of protein M of SARS-CoV Urbani [1]: 0.3
Binding of serum SARS-green to linear peptides of protein M of SARS-CoV Urbani [1]: 0.5
Binding of serum SARS-green to looped/cyclic peptides of protein M of SARS-CoV Urbani [1]: 0.0
Binding of serum SARS-yellow to linear peptides of protein M of SARS-CoV Urbani [1]: 0.3
Binding of serum SARS-yellow to looped/cyclic peptides of protein M of SARS-CoV Urbani [1]: 0.6
Rabbit serum linear peptides [2]: 0.1
Rabbit serum looped peptides [2]: 0.3
Binding of Control Serum Blood-Bank to Looped peptides of the protein M of SARS-CoV Urbani [3]: 0.8
Binding of Control serum Blood-bank to linear peptides of the protein M of SARS-CoV Urbani [3]: 0.8
Binding of Control serum LUMC to linear peptides of the protein M of SARS-CoV Urbani [3]: 0.8
Binding of Control serum LUMC to looped peptides of the protein M of SARS-CoV Urbani [3]: 0.7
